Literature values as cited in publication PMC5974752, “Bax/Tubulin/Epithelial-Mesenchymal Pathways Determine the Efficacy of Silybin Analog HM015k in Colorectal Cancer Cell Growth and Metastasis” (Frontiers in Pharmacology, 2018).

Legend:
EMT—driven resistance = tested on: EMT—driven resistance; set-up: method as in Cufí et al., 2013; conditions: 100 mg/kg; ref Cufí et al., 2013; cited from earlier work
PC3 and PC3MM2 cells [1] = tested on: PC3 and PC3MM2 cells; set-up: method as in Deep et al., 2011; conditions: 30 and 90 μM; ref Deep et al., 2011; cited from earlier work
[2] = tested on: transgenic mice with prostate adenocarcinomas; set-up: method as in Singh et al., 2008; conditions: 0.5 and 1% (w/w); ref Singh et al., 2008; cited from earlier work
[3] = tested on: Wnt/β-catenin signaling in PC-3, DU-145, MDAMB-231 and T-47D cells; set-up: method as in Lu W. et al., 2012; conditions: 100–200 μM; ref Lu W. et al., 2012; cited from earlier work
[4] = tested on: xenograft model in mice using SW480 cells; set-up: method as in Kaur et al., 2010; conditions: i.p. 100 or 200 mg/kg; ref Kaur et al., 2010; cited from earlier work
ARCaP(M) cells = tested on: ARCaP(M) cells; set-up: method as in Wu et al., 2009; conditions: 100 and 200 μM; ref Wu et al., 2009; cited from earlier work
[5] = tested on: SW480 cells with a mutant APC gene; set-up: method as in Kaur et al., 2010; conditions: 50–200 μM; ref Kaur et al., 2010; cited from earlier work
[6] = tested on: CRC lines HCT116 and HT29; set-up: method as in Agarwal et al., 2003; conditions: ref Agarwal et al., 2003, cited from earlier work
[7] = set-up: method as in Dixit et al., 2007; Zhu et al., 2013; Amawi et al., 2017b; conditions: ref Dixit et al., 2007; Zhu et al., 2013; Amawi et al., 2017b; cited from earlier work
PC3 and PC3MM2 cells [8] = tested on: PC3 and PC3MM2 cells; set-up: method as in Deep et al., 2011; conditions: 90 μM; ref Deep et al., 2011; cited from earlier work

Structure (SMILES): COc1cc(C2Oc3cc([C@H]4Oc5cc(O)cc(O)c5C(=O)[C@@H]4O)ccc3OC2CO)ccc1O (some centres unmarked) [silybin]
- EMT-driven resistance (EMT—driven resistance): significantly decreased
- migratory and invasive capacities (PC3 and PC3MM2 cells [1]): inhibits the migratory and invasive capacities
- E-cadherin, vimentin and MMP-2 expression [2]: significantly upregulate E-cadherin and decrease the expression of the EMT markers, vimentin and MMP-2
- Wnt/β-catenin signaling [3]: significantly decreased
- effects in SW480 xenograft [4]: produced similar effects
- invasiveness (ARCaP(M) cells): inhibits the invasiveness
- nuclear β-catenin, c-Myc expression and apoptosis [5]: significantly inhibited the expression of nuclear β-catenin, c-Myc and induced apoptosis
- concentration that inhibits proliferation ([6]; HCT116 and HT29): 50 to 200 µM
- cell cycle arrest and apoptosis [6]: induces both G1 and G2 cell cycle arrest and induces apoptosis
- bioavailability [7]: poor bioavailability
- E-cadherin and nuclear β-catenin levels (PC3 and PC3MM2 cells [8]): significant upregulation in E-cadherin and downregulation in nuclear β-catenin levels
